What was measured:
Bcr/Abl fusion protein = Bcr/Abl fusion protein (Homo sapiens, UniProt P00519); assay: (§1) Inhibition of BCR (unknown origin)/recombinant human N-terminal His-tagged ABL1 (27 to end residues) expressed in baculovirus infected Sf9 cells using ABLtide as substrate preincubated for 30 mins followed by substrate addition and measured after 1 hr in presence of ATP by kinase-Glo luminescence assay
K562 = assay: Antiproliferative activity against human K562 cells assessed as reduction in cell viability after 24 hrs by CCK8 assay; assay type: functional, cell-based; settings: K562, 24 h
U-937 = assay: Antiproliferative activity against human U937 cells assessed as reduction in cell viability after 24 hrs by CCK8 assay; assay type: functional, cell-based; settings: U-937, 24 h
[1] = Cytotoxicity against human 293T cells assessed as reduction in cell viability after 24 hrs by CCK8 assay; assay type: cell-based; settings: 293T (HEK-293T) cells
[2] = target: Bcr/Abl fusion protein (Homo sapiens) (UniProt P00519+P11274); assay: as §1, with “Potency index, ratio of staurosporine IC50 to test compound IC50 for inhibition” for “Inhibition”; settings: time 90.0 min
Chain of Bcr/Abl fusion protein (Homo sapiens) (P00519 whole entry, looked up, the tested form may be a part): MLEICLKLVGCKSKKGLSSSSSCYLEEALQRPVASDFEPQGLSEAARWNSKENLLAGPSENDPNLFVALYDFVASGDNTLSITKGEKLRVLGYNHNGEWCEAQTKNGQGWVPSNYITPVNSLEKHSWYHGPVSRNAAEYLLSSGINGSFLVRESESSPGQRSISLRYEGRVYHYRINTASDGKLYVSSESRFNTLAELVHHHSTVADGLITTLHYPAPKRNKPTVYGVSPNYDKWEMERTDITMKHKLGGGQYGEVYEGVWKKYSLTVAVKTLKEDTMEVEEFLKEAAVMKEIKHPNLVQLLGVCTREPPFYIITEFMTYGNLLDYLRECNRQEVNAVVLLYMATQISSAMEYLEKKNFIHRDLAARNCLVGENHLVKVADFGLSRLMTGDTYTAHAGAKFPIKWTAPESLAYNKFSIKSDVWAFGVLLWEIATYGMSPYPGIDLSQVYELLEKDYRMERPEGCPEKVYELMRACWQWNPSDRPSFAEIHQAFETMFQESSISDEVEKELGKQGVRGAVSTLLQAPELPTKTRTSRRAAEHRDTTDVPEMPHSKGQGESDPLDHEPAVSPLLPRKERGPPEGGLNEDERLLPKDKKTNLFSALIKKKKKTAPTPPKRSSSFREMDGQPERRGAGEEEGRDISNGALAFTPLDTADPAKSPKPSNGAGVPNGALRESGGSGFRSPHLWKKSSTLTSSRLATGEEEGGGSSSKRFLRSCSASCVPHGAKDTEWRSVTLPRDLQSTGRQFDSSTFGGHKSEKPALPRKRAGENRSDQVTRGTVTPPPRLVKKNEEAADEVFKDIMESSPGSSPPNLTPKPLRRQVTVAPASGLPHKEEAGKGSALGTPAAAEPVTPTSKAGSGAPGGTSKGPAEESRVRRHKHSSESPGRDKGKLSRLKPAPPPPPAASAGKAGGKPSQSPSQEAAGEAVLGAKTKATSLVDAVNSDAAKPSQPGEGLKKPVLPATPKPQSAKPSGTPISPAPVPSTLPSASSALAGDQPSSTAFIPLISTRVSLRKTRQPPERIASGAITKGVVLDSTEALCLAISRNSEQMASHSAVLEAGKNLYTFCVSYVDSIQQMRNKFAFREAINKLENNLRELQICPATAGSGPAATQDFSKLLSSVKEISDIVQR
Chain of Bcr/Abl fusion protein (Homo sapiens) (P11274 whole entry, looked up, the tested form may be a part): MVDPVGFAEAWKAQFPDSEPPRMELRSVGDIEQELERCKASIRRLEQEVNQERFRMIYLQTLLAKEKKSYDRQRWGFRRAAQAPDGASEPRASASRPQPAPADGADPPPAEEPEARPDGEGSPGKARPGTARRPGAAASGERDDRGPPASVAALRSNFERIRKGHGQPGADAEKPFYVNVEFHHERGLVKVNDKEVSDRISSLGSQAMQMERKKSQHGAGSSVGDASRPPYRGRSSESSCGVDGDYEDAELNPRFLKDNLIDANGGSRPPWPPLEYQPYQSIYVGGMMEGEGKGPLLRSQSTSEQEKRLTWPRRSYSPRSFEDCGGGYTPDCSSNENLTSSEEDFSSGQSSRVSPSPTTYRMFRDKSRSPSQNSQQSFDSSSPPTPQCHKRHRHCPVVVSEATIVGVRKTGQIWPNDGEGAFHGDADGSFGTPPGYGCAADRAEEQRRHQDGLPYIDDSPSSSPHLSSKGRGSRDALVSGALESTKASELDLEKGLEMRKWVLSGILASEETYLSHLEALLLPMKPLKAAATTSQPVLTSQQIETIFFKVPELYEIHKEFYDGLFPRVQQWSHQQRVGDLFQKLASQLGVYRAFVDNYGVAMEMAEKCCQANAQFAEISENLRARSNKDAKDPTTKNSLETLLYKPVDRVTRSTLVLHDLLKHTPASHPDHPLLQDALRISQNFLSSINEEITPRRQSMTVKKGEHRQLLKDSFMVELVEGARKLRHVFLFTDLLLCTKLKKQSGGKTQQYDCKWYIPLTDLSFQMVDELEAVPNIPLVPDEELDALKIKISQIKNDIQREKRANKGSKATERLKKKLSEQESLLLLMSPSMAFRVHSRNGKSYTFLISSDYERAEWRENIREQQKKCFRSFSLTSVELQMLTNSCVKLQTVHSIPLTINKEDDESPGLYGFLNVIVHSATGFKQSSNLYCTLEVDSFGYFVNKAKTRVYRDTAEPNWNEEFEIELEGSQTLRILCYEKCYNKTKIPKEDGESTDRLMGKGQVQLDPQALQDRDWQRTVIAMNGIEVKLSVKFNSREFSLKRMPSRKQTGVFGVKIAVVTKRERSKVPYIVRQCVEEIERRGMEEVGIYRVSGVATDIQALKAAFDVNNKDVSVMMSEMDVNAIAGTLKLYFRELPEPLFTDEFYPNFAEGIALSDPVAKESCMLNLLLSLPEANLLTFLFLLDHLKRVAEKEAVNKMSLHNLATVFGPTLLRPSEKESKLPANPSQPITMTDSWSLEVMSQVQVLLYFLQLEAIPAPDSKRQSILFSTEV

Chain of Bcr/Abl fusion protein (P00519 whole entry, the tested form may be a part): as the sequence (P00519 whole entry, looked up, the tested form may be a part) above
Chain of Bcr/Abl fusion protein (P11274 whole entry, further chain, the tested form may be a part): as the sequence (P11274 whole entry, looked up, the tested form may be a part) above

Row | IC50 (Bcr/Abl fusion protein) [µM] | IC50 (K562) [µM] | IC50 (U-937) [µM] | Ratio IC50 [2] | Structure (SMILES) | CC50 at 24 h [1] [µM]
1 | 0.0741 | 10.5 | > 20 | – | Cc1ccc(NC(=O)c2ccc(C(F)(F)F)cc2)cc1-n1cc(-c2cnc3cccnn23)cn1 | > 80
2 | 0.0085 | < 0.002 | 13.7 | 14.3 | Cc1ccc(NC(=O)c2cccc(C(F)(F)F)c2)cc1-n1cc(-c2cnc3cccnn23)cn1 | 40.3
3 | 0.767 | 19.7 | 16.3 | – | COc1ccc(C(=O)Nc2ccc(C)c(-n3cc(-c4cnc5ccnn5c4)cn3)c2)cc1 | > 80
4 | 0.621 | 5.88 | 6.83 | – | Cc1ccc(NC(=O)c2ccc(CN3CCCN(C)CC3)cc2)cc1-n1cc(-c2cnc3ccnn3c2)cn1 | 20.5
5 | 0.0194 | 7.54 | > 20 | – | CCc1ccc(C(=O)Nc2ccc(C)c(-n3cc(-c4cnc5cccnn45)cn3)c2)cc1 | > 80
6 | 0.804 | 6.93 | 13.1 | – | Cc1ccc(NC(=O)c2ccc(C(F)(F)F)cc2)cc1-n1cc(-c2cnc3ccnn3c2)cn1 | 43.2
7 | 0.0261 | < 0.002 | 10.8 | – | Cc1ccc(NC(=O)c2ccc(CN3CCN(C)CC3)cc2)cc1-n1cc(-c2cnc3cccnn23)cn1 | 23.8
8 | 2.44 | – | – | – | Cc1ccc(NC(=O)c2ccc(CN3CCOCC3)cc2)cc1-n1cc(-c2cnc3ccnn3c2)cn1 | –
9 | 0.109 | 8.25 | 12.4 | – | Cc1ccc(NC(=O)c2ccc(CN3CCOCC3)cc2)cc1-n1cc(-c2cnc3cccnn23)cn1 | 9.04
10 | 0.0222 | 5.08 | > 20 | – | Cc1ccc(NC(=O)c2cccc(Cl)c2)cc1-n1cc(-c2cnc3cccnn23)cn1 | > 80
11 | 0.0809 | 12.4 | > 20 | – | Cc1ccc(NC(=O)c2ccc(F)cc2)cc1-n1cc(-c2cnc3cccnn23)cn1 | > 80
12 | – | 7.38 | 12.4 | – | Cc1ccc(NC(=O)c2ccc(CN3CCN(C)CC3)cc2)cc1Nc1nccc(-c2cccnc2)n1 [IMATINIB] | 27.5
